In publication PMC6385087, “New Multitarget Hybrids Bearing Tacrine and Phenylbenzothiazole Motifs as Potential Drug Candidates for Alzheimer’s Disease” (Molecules, 2019):

Assays:
SH-SY5Y cells = experiment: Dose-response screening for non-toxic concentration, MTT reduction; format: cell-based; conditions: dose-response screening from 0.2 μM to 5 μM, 25 h
Protocol: The neuroprotective effect of TAC-PhBTA conjugates was evaluated using SH-SY5Y cells treated with Aβ1–42 peptides or ascorbate/iron. For each compound, a dose-response curve was performed to select a non-toxic concentration in order to analyze its neuroprotective effect (Figure 3).
SH-SY5Y human neuroblastoma cell line (ATCC-CRL-2266) grown in Dulbecco’s modified Eagle’s medium (DMEM) obtained from Gibco-Invitrogen (Life Technologies Ltd., Liverpool, UK) with 10% heat inactivated fetal calf serum, containing 50 U/mL penicillin, and 50 μg/mL streptomycin, under a humidified atmosphere of 95% air-5% CO2 at 37 °C. Cells were plated at 0.12 × 10^6 cells/mL for cell viability assay. […]. As a result we selected a 2.5 μM final concentration for compound 16; 0.5 μM final concentration for compound 17; 0.2 μM final concentration for compounds 14 and 15; and a 1 μM final concentration for compounds 19 and 18. […] The compounds were added to the cell media 1 h before the incubation with Aβ1–42 or ferrous sulfate/L-ascorbic acid. Aβ1–42 or ferrous sulfate/L-ascorbic acid where incubated alone or with the compound for an additional 24 h. Aβ1–42 was prepared as 276.9 μM stock in sterile water and added to the medium at 1 μM final concentration. Ferrous sulfate was freshly prepared as 0.36 M stock in water and added to the medium at 500 μM final concentration. L-Ascorbic Acid was freshly prepared as 80 mM stock in water and added to the medium at 5 mM final concentration. Aβ1–42 was purchased from Bachem (Torrance, CA, USA) and ferrous sulfate and L-ascorbic acid from Sigma Chemical Co (St. Louis, MO, USA).
Cell viability was determined by a MTT (3-(4,5-dimethylthiazol-2-yl)-2,5-diphenyltetrazolium bromide) reduction test. In viable cells, the enzyme succinate dehydrogenase metabolizes MTT into formazan that absorbs light at 570 nm. Following the cell treatment protocol the medium was aspirated and 0.5 mL MTT (0.5 mg/mL) was added to each well. The plate was then incubated at 37 °C for 1 h 30 min protected from light. At the end of the incubation period the formazan precipitates were solubilized with 0.5 mL of acidic isopropanol (0.04 M HCl/isopropanol). The absorbance was measured at 570 nm. Cell reduction ability was expressed as a percentage of untreated control cells.

Aβ1–42 self-aggregation = target: T1, Aβ1–42 self-aggregation (Homo sapiens, UniProt P05067); experiment: Aβ1–42 self-aggregation inhibition, thioflavin T fluorescence assay; format: biochemical; conditions: self-mediated Aβ42 aggregation, ThT fluorescence, CL = 40 μM, means of two experiments; for inhibition at 40 µM: read-out: Inhibition of Aβ-self-aggregation (%)
T1 construct: Commercially available Aβ1-42 peptide was obtained from Aldrich; purchased Aldrich
Protocol: […]. Since the compounds of this series presented some solubility problems in methanol, the assays were performed with ligands at concentrations of 40 µM, i.e., half of the concentration usually used (80 µM) in these assays. […]. […] So, it appears that introduction of a chloro substituent in TAC and/or a hydroxyl group in the carbon linker are not well suited for the interaction with β-sheet secondary structure of Aβ aggregates. […].
Commercially available Aβ1-42 peptide was obtained from Aldrich and stored at −20 °C. It was treated with 1,1,1,3,3,3-hexafluoropropan-2-ol (HFIP) to avoid self-aggregation and reserved. HFIP pre-treated Aβ1–42 samples were re-dissolved in CH3CN/Na2CO3 (300 µM)/NaOH (250 µM) (48.3:48.3:4.3, v/v/v) solvent mixture in order to have a stable stock solution; this solution (500 µM) was further diluted in phosphate buffer (0.215 M, pH 8.0) to obtain 40 µM solution. The ligand, which was previously dissolved in methanol, was further diluted in phosphate buffer to a final concentration of 40 µM. Aβ1–42 aggregation was determined by measuring the fluorescence emission of Thioflavin T dye, with a Cary Eclipse Varian fluorimeter (Molecular Devices, San José, CA, USA).
After incubation for 24 h at 37 °C, without stirring, the samples were added to a 96-well plate (BD Falcon) with 180 µL of 5 µM ThT in 50 mM glycine-NaOH (pH 8.5) buffer. Blank samples were prepared for each concentration in a similar way, devoid of peptide. As for the control, a sample of the peptide was incubated under identical conditions but without the inhibitor. After 5-min incubation with the dye, the ThT fluorescence was measured at the following wavelengths: 446 nm (excitation) and 486 nm (emission). The percent inhibition of the self-induced aggregation due to the presence of the test compound was calculated by Equation (2), in which IFi and IF0 corresponded to the fluorescence intensities, in the presence and the absence of the test compound, minus the fluorescence intensities due to the respective blanks. I% = 100 − (IFi/IF0 × 100)(2)
The reported values were obtained as the mean ± S.E.M. of two different experiments.

T1 sequence (P05067 672-713 limits assumed): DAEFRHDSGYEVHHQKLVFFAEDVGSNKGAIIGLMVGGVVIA

Compound	Highest non-toxic concentration selected (SH-SY5Y cells) [µM]	Inhibition of Aβ-self-aggregation (%) (Aβ1–42 self-aggregation; 40 µM)	inhibition at 40 µM (Aβ1–42 self-aggregation) [%]
COc1cc(-c2nc3ccccc3s2)ccc1OCC(=O)NCC(O)CNc1c2c(nc3cc(Cl)ccc13)CCCC2 (stereo not shown) [compound 19, 2-(4-(Benzo[d]thiazol-2-yl)-2-methoxyphenoxy)-N-(3-((6-chloro-1,2,3,4-tetrahydroacridin-9-yl)amino)-2-hydroxypropyl)acetamide]	1	31.3	~31
COc1cc(-c2nc3ccccc3s2)ccc1OCC(=O)NCCNc1c2c(nc3cc(Cl)ccc13)CCCC2 [compound 15, 2-(4-(Benzo[d]thiazol-2-yl)-2-methoxyphenoxy)-N-(2-((6-chloro-1,2,3,4 tetrahydroacridin-9-yl)amino)ethyl)acetamide]	0.2	–	27
COc1cc(-c2nc3ccccc3s2)ccc1OCC(=O)NCCCNc1c2c(nc3ccccc13)CCCC2 [compound 16, 2-(4-(Benzo[d]thiazol-2-yl)-2-methoxyphenoxy)-N-(3-((1,2,3,4-tetrahydroacridin-9-yl)amino)propyl)acetamide]	2.5	–	33.7
